Measurements reported in US20210290644A1, “COMPOUNDS AND METHODS FOR TREATING FUNGAL INFECTIONS” (Amplyx Pharmaceuticals, Inc., priority 2018, published 2021).
Where “and” joins values, the source holds several entries; their conditions need not be identical. Equal entries are not always repeated. Entries after “also recorded” stand apart in the source; their conditions may differ.

Assays:
clinical [1] = conditions: human, plasma, po, 400 mg
Text: (§1) Study #2 of Compound 1 was a Phase 1, double-blind, placebo-controlled, randomized study in healthy volunteers that consisted of a series of single and multiple dose treatments. In the single ascending dose (SAD) phase, subjects in Cohort 1a received a single IV dose in Period A and then rising single oral doses in Periods B to D. Subjects in Cohort 1b received a single oral dose under fed and fasted conditions in Periods E and F. Subjects in Cohorts 2 and 3 received once-daily oral doses for 14 days, as did subjects in Cohort 4 as part of an in vivo screen for drug-drug interaction (DDI) potential.
(§2) Blood samples for the determination of Compound 1 and Compound 1A plasma concentrations were collected before and at appropriate times during all single and multiple dose administrations of Compound 1. For SAD Cohorts 1a and 1b, urine samples for the determination of Compound 1A were collected through 48 hrs after dosing.

[2] = Study #2 Phase 1: effect of food (fed vs fasted) on pharmacokinetics of Compound 1A after 400 mg oral Compound 1; conditions: for F: 400 mg oral, ratio of geometric mean AUC(inf) to IV treatment after correction for dose;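 as to all read-outs here: cohort 1b subjects took one oral dose in both fed and fasted states, across two separate periods (E, F) within the single ascending dose phase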
Text: as §1, §2

clinical [3] = conditions: human, plasma, po
Text: (§3) In the single ascending dose (SAD) phase, subjects in Cohort 1a received a single IV dose in Period A and then rising single oral doses in Periods B to D. Subjects in Cohort 1b received a single oral dose under fed and fasted conditions in Periods E and F. Subjects in Cohorts 2 and 3 received once-daily oral doses for 14 days, as did subjects in Cohort 4 as part of an in vivo screen for drug-drug interaction (DDI) potential.
(§4) For SAD Cohorts 1a and 1b, urine samples for the determination of Compound 1A were collected through 48 hrs after dosing.
(§5) Forty-six (46) subjects were enrolled into the study, 8 in Cohort 1a, 10 in Cohort 1b, and 8 each in Cohorts 2 and 3.

[4] = Study #2 Phase 1: pharmacokinetics after single IV and single/multiple oral doses of Compound 1, absolute oral bioavailability; conditions: human, plasma; for Tmax: median;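 as to all read-outs here: phase 1 study design: one IV dose, then escalating single oral doses, fed versus fasted single oral dosing, and once-daily oral dosing over 14 days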
Text: as §3, §4, §5

[5] = Cohort 1B, 400 mg oral Compound 1, fed vs fasted

With `Nc1ncccc1-c1cc(Cc2ccc(COc3ccccn3)cc2)no1` [Compound 1A] as the compound, how does the AUC(0-inf) (clinical [1]) read?
Its AUC(0-inf) is 177 µg·h/mL.

And the CL/F (clinical [1])?
Its CL/F is 0.0251 L/h/kg.

What about the Cmax (clinical [1]) of the same compound?
Its Cmax is 4.25 µg/mL.

And the Vd/F (clinical [1])?
Its Vd/F is 161 L and 2.35 L/kg.

And the half-life (clinical [1])?
Its half-life is 64.7 h.

And the “effect of high fat/high calorie meal on bioavailability/exposure” value ([2]; 400 mg oral Compound 1)?
The value was “no significant effect; also recorded: no impact of food”.

What about the “least squares geometric mean ratios (LSGMR) fed/fasted for Cmax and both AUCs” value ([2]; 400 mg oral Compound 1, high fat/high calorie meal) of the same compound?
Its value is ~106%.

And the “Geometric Mean Ratio, AUC(0-t)” value [2, 5]?
The value was 106.00%.

What about the “Geometric Mean Ratio, AUC(inf)” value [2, 5] of the same compound?
Its value is 106.15%.

What about the “Geometric Mean Ratio, Cmax” value [2, 5] of the same compound?
The value was 106.29%.

What about the F ([2]; Cohort 1B, Fasted) of the same compound?
The F was 101.2%.

And the F ([2]; Cohort 1B, Fed)?
Its F is 107.4%.

And the AUC(0-t) ([2]; human, plasma, po, 400 mg, AUC(0-24), Cohort 1B, 400 mg oral Compound 1, Fed, geometric mean)?
The AUC(0-t) was 43.6 µg·h/mL.

What about the AUC(0-t) ([2]; human, plasma, po, 400 mg, AUC(0-t), Cohort 1B, 400 mg oral Compound 1, Fed, geometric mean) of the same compound?
The AUC(0-t) was 180 µg·h/mL.

What about the AUC(0-inf) ([2]; human, plasma, po, 400 mg, AUC(inf), Cohort 1B, 400 mg oral Compound 1, Fed, geometric mean) of the same compound?
The AUC(0-inf) was 188 µg·h/mL.

What about the CL/F ([2]; human, plasma, po, 400 mg, CL/F, Cohort 1B, 400 mg oral Compound 1, Fed, geometric mean) of the same compound?
Its CL/F is 0.0237 L/h/kg.

And the Cmax ([2]; human, plasma, po, 400 mg, Cmax, Cohort 1B, 400 mg oral Compound 1, Fed, geometric mean)?
Its Cmax is 4.52 µg/mL.

And the Tmax ([2]; human, plasma, po, 400 mg, Tmax, Cohort 1B, 400 mg oral Compound 1, Fasted, median)?
Its Tmax is 2.5 h.

What about the Tmax ([2]; human, plasma, po, 400 mg, Tmax, Cohort 1B, 400 mg oral Compound 1, Fed, median) of the same compound?
Its Tmax is 3.75 h.

And the Vd/F ([2]; human, plasma, po, 400 mg, Vz/F, Cohort 1B, 400 mg oral Compound 1, Fed, geometric mean)?
Its Vd/F is 159 L and 2.3 L/kg.

What about the Tmax ([2]; human, plasma, po, 400 mg, median tmax, 400 mg oral Compound 1, fasted conditions) of the same compound?
The Tmax was 2.5 h.

What about the Tmax ([2]; human, plasma, po, 400 mg, median tmax, 400 mg oral Compound 1, fed conditions) of the same compound?
The Tmax was 3.75 h.

What about the half-life ([2]; human, plasma, po, 400 mg, t½, Cohort 1B, 400 mg oral Compound 1, Fed, geometric mean) of the same compound?
Its half-life is 67.5 h.

What about the AUC(0-inf) (clinical [3]; 100 mg) of the same compound?
Its AUC(0-inf) is 39.6 µg·h/mL.

What about the CL/F (clinical [3]; 100 mg) of the same compound?
The CL/F was 0.025 L/h/kg.

And the Cmax (clinical [3]; 100 mg)?
The Cmax was 1.3 µg/mL.

What about the Vd/F (clinical [3]; 100 mg) of the same compound?
The Vd/F was 138 L and 1.78 L/kg.

What about the half-life (clinical [3]; 100 mg) of the same compound?
Its half-life is 49.5 h.

And the AUC(0-inf) (clinical [3]; 400 mg)?
Its AUC(0-inf) is 177 µg·h/mL.

What about the CL/F (clinical [3]; 400 mg) of the same compound?
Its CL/F is 0.0251 L/h/kg.

And the Cmax (clinical [3]; 400 mg)?
Its Cmax is 4.25 µg/mL.

What about the Vd/F (clinical [3]; 400 mg) of the same compound?
Its Vd/F is 161 L and 2.35 L/kg.

What about the half-life (clinical [3]; 400 mg) of the same compound?
The half-life was 64.7 h.

And the AUC(0-inf) ([4]; iv, 200 mg)?
The AUC(0-inf) was 87.5 µg·h/mL.

And the Vd ([4]; iv, 200 mg)?
The Vd was 124 L and 1.6 L/kg.

What about the clearance ([4]; iv, 200 mg) of the same compound?
Its clearance is 29.1 mL/min and 0.377 mL/min/kg.

And the AUC(0-t) ([4]; iv, 200 mg, AUC(0-24), 200 mg/3 hr IV Compound 1, fasted, geometric mean)?
Its AUC(0-t) is 24.4 µg·h/mL.

What about the AUC(0-t) ([4]; iv, 200 mg, AUC(0-t), 200 mg/3 hr IV Compound 1, fasted, geometric mean) of the same compound?
Its AUC(0-t) is 86.3 µg·h/mL.

And the Cmax ([4]; iv, 200 mg, 200 mg/3 hr IV Compound 1, fasted, geometric mean)?
The Cmax was 2.64 µg/mL.

And the Tmax ([4]; iv, 200 mg, 200 mg/3 hr IV Compound 1, fasted)?
Its Tmax is 3 h.

And the half-life ([4]; iv, 200 mg, geometric mean t1/2, IV treatment, 200 mg Compound 1 over 3 hrs)?
Its half-life is 49.1 h.

What about the half-life ([4]; iv, 200 mg, t½, 200 mg/3 hr IV Compound 1, fasted, geometric mean) of the same compound?
Its half-life is 49.1 h.

What about the bioavailability ([4]; oral) of the same compound?
Its bioavailability is 90.6 to 101%.

And the AUC(0-t) ([4]; oral, 500 mg, AUC(0-24), Day 1, Cohort 2, 500 mg Tablets QD × 14 Days, fed, geometric mean)?
The AUC(0-t) was 50.7 µg·h/mL.

And the AUC(0-t) ([4]; oral, 500 mg, AUC(0-24), Day 7, Cohort 2, 500 mg Tablets QD × 14 Days, fed, geometric mean)?
Its AUC(0-t) is 154 µg·h/mL.

And the AUC(0-t) ([4]; oral, 500 mg, AUC(0-24), Day 14, Cohort 2, 500 mg Tablets QD × 14 Days, fed, geometric mean)?
The AUC(0-t) was 191 µg·h/mL.

What about the CL/F ([4]; oral, 500 mg, CL, Day 14, Cohort 2, 500 mg Tablets QD × 14 Days, fed, geometric mean) of the same compound?
Its CL/F is 0.0277 L/h/kg.

And the Cmax ([4]; oral, 500 mg, Day 1, Cohort 2, 500 mg Tablets QD × 14 Days, fed, geometric mean)?
Its Cmax is 6.18 µg/mL.

And the Cmax ([4]; oral, 500 mg, Day 7, Cohort 2, 500 mg Tablets QD × 14 Days, fed, geometric mean)?
The Cmax was 10.9 µg/mL.

What about the Cmax ([4]; oral, 500 mg, Day 14, Cohort 2, 500 mg Tablets QD × 14 Days, fed, geometric mean) of the same compound?
Its Cmax is 12 µg/mL.

And the Tmax ([4]; oral, 500 mg, Day 1, Cohort 2, 500 mg Tablets QD × 14 Days, fed)?
The Tmax was 4 h.

And the Tmax ([4]; oral, 500 mg, Day 7, Cohort 2, 500 mg Tablets QD × 14 Days, fed)?
Its Tmax is 3.76 h.

And the Tmax ([4]; oral, 500 mg, Day 14, Cohort 2, 500 mg Tablets QD × 14 Days, fed)?
The Tmax was 3.75 h.

And the half-life ([4]; oral, 500 mg, T½, Day 14, Cohort 2, 500 mg Tablets QD × 14 Days, fed, geometric mean)?
The half-life was 73.4 h.

What about the AUC(0-t) ([4]; oral, 1000 mg, AUC(0-24), Day 1, Cohort 3, 1000 mg Tablets QD × 14 Days, fed, geometric mean) of the same compound?
The AUC(0-t) was 119 µg·h/mL.

What about the AUC(0-t) ([4]; oral, 1000 mg, AUC(0-24), Day 7, Cohort 3, 1000 mg Tablets QD × 14 Days, fed, geometric mean) of the same compound?
The AUC(0-t) was 316 µg·h/mL.

What about the AUC(0-t) ([4]; oral, 1000 mg, AUC(0-24), Day 14, Cohort 3, 1000 mg Tablets QD × 14 Days, fed, geometric mean) of the same compound?
The AUC(0-t) was 326 µg·h/mL.
